Results as given in US20250115571A1, “OXOPIPERAZINE DERIVATIVES” (Inthera Bioscience AG, priority 2017, published 2025).

What was measured:
[1] = test system: patient-derived castration-resistant prostate tumor cells (model #PR6511); experiment: Castration resistant prostate cancer patient-derived xenograft (CRPC PDX); assay type: in vivo, mouse; conditions: for CR (complete regression) = number of mice / PR (partial regression) = number of mice / TFS (Tumor Free Survival) = number of complete regressions recorded up to Group Day End: groups of eight mice
Method: NSG NOD.Cg-PrkdcscidIj2rgtm1Wjl/SzJ mice (6-8 weeks of age) were injected with patient-derived castration-resistant prostate tumor cells (model #PR6511, Crown Bioscience UK Ltd Hillcrest, Osgathorpe Leicestershire, UK). The cells were inoculated subcutaneously into the left flank of 40 male NSG mice. When tumors reached a mean volume of approximately 100 mm^3 (i.e. 100 mm^3+/−54 mm^3, FIG. 3), mice were randomly assigned to five treatment groups of each eight mice (TABLE 9). Body weights were measured three times weekly prior to the initiation of dosing and daily thereafter. Tumor burden was assessed by caliper measurement three times weekly. Dosing breaks were applied when tolerability issues arose (body weight loss>10). Upon completion of the scheduled dosing phase at day 57, tumor outgrowth was monitored for groups 3, 4 and […] up to study day 77. Groups 1 and 2 were terminated on study day 57. Results of the experiment are shown in TABLES 10 and 11; and FIGS. 3 and 4. The experiment was performed in the Crown Bioscience Ltd. testing facility (Crown Bioscience UK Ltd Hillcrest, Dodgeford Lane, Osgathorpe Leicestershire LE12 9TE, UK).

[2] = test system: SiHa human HPV16-positive cervical cancer cells; experiment: Cell-derived xenograft mouse model for cervical cancer (SiHa CDX); assay type: in vivo; conditions: for Tumor Size day 37: SiHa CDX, female BALB/c nude mice, Mean ± SEM; for T/C: day 37, tumor-to-control ratio (volume/volume)
Method: Female BALB/c nude mice (7-9 weeks of age) were injected with SiHa human HPV16-positive (Human Papillomavirus type 16) cervical cancer cells. The cells were inoculated subcutaneously into the left flank of 48 mice. When tumors reached a mean volume of approximately 111 mm^3, mice were randomly assigned to eight treatment groups of each six mice (TABLE 18). Body weights were measured three times weekly prior to the initiation of dosing and daily thereafter. Tumor burden was assessed by caliper measurement twice weekly. Dosing breaks were applied when tolerability issues arose (body weight loss>10%). The study was terminated four weeks post first dosing. The experiment was performed in the Crown Bioscience Ltd. (Beijing) testing facility (Ground Floor, Light Muller Building, Changping Sector of Zhongguancun Scientific Park, No. 21 Huoju Road, Changping District, Beijing, CHIN).

[3] = test system: CT-26 cells; experiment: Cell-derived syngeneic mouse model for colorectal carcinoma combined with anti-PD1 antibodies; assay type: in vivo; conditions: ten mice per group
Method: The cells were inoculated subcutaneously into the left flank of 60 mice. […] Body weights were measured daily until treatment start, then twice weekly. Tumor burden was assessed twice weekly by caliper measurement. The study was terminated four weeks post first dosing.

[4] = test system: androgen receptor (AR)-target genes KLK3, TMPRSS2, SLC45A3 in LNCaP cells; experiment: P300/CBP-androgen receptor target gene expression regulation in prostate cancer cells (RT-qPCR); assay type: cell-based, human; conditions: 300 nM added concomitantly to DHT (100 nM, 4 hours)
Method: LNCaP prostate cancer cells (CLS GmbH) were seeded at a density of 15′000 cells/cm^2 in 48-well cell culture-treated plates and cultured for 72 hours in RPMI1640 medium (Sigma-Aldrich) supplemented with Glutamax I (ThermoFisher-Gibco), “Antibiotic and Antimycotic Solution” (Sigma-Aldrich) and 1% fetal calf serum (Sigma-Aldrich). AR-driven gene expression response was induced by addition of the androgen signaling agonist dihydrotestosterone (Selleck Chemicals, Houston, TX, USA) to a concentration of 100 nanomol/Lt for 4 hours. Cells were treated with Compound 258 during dihydrotestosterone induction. Culture medium was carefully removed, cells were washed 1× with Phosphate-Buffered Saline (Sigma-Aldrich) and lysed using the SingleShot Cell Lysis Kit (Bio-Rad, Hercules, CA, USA). Gene expression of well-known AR-responsive genes prostate-specific antigen (KLK3, ThermoFisher), transmembrane serine protease 2 (TMPRSS2, ThermoFisher) and prostein (SLC45A3, ThermoFisher) was assessed by quantitative PCR after reverse transcription of the LNCaP RNA with the Applied Biosystem High-Capacity cDNA Reverse Transcription Kit (ThermoFisher). Gene expression was normalized against four reference genes (RPLP0, GUSB, GAPDH and ACTB, all probe detection systems were from Bio-Rad).

[5] = test system: Vascular Endothelial Growth Factor A (VEGF); experiment: Tumor VEGF protein (ELISA) in HCT-116 colorectal cancer cell-derived xenograft; assay type: in vivo, mouse; conditions: HCT-116 xenograft, approximately 4 weeks of treatment with 3 mg/kg or 6 mg/kg
Method: Mice from groups 1, 2, 4 and 5 of the HCT-116 colorectal cancer model (TABLE 12, EXAMPLE 324) and MKN45 gastric cancer model (TABLE 14, EXAMPLE 325) were used to analyze tumor Vascular Endothelial Growth Factor A (VEGF) protein expression at the end of the experiment. Tumors homogenates were prepared using a 2× Lysis Buffer (RayBiotech Life, Norcross, GA, USA) according to manufacturer's instructions. VEGF was quantified in 50 micrograms tumor by ELISA (Human VEGF Quantikine ELISA Kit, R&D Systems) according to manufacturer's instructions.

[6] = 6 mg/kg p.o. QD, n.s. = not significant
[7] = p.o. QD, 10 mg/kg, 3 mg/kg from day 51 on
[8] = 1 mg/kg, BID, p.o., listed as Compound 258
[9] = 3 mg/kg, BID/QD (p.o. BID, QD from treatment day 7 on)

Which “TWO-WAY ANOVA p (tumor size at the end of the study) vs. Compound 258 10 mg/kg” value [1, 6] does the source give for CC(C)C[C@@H]1NCCN([C@@H](CC(C)C)C(=O)N2CCC3(C[C@@H]2C)OCC(CN2CCCC2)CO3)C1=O (stereo partly drawn) [Compound 258, (3S)-1-[(2S)-4-methyl-1-oxo-1-[(3s,6s,8S)-8-methyl-3-(pyrrolidin-1-ylmethyl)-1,5-dioxa-9-azaspiro[5.5]undec-an-9-yl]pentan-2-yl]-3-(2-methylpropyl)piper-azin-2-one (^≠), isomer Z] here?
Its value is “n.s”.

And the “TWO-WAY ANOVA p (tumor size at the end of the study) vs. Enzalutamide” value ([1]; 6 mg/kg, p.o. QD)?
The value was “p < 0.0001”.

What about the “TWO-WAY ANOVA p (tumor size at the end of the study) vs. Vehicle” value ([1]; 6 mg/kg, p.o. QD) of the same molecule?
The value was “p < 0.0001”.

What about the “TWO-WAY ANOVA p (tumor size at the end of the study) vs. Enzalutamide” value ([1]; 10 mg/kg p.o. QD) of the same molecule?
The value was “p < 0.0001”.

And the “TWO-WAY ANOVA p (tumor size at the end of the study) vs. Vehicle” value ([1]; 10 mg/kg p.o. QD)?
The value was “p < 0.0001”.

And the “CR (complete regression) = number of mice” value (“CR” below) ([1]; p.o. QD, 6 mg/kg)?
The value was 3.

What about the “PR (partial regression) = number of mice” value ([1]; p.o. QD, 6 mg/kg) of the same molecule?
The value was 2.

What about the “TFS (Tumor Free Survival) = number of complete regressions recorded up to Group Day End” value (“TFS (Tumor Free Survival) = number” below) ([1]; p.o. QD, 6 mg/kg) of the same molecule?
Its value is 3.

And the “CR” value [1, 7]?
Its value is 4.

What about the “PR (partial regression) = number of mice” value [1, 7] of the same molecule?
The value was 2.

What about the “TFS (Tumor Free Survival) = number” value [1, 7] of the same molecule?
The value was 3.

What about the “Tumor Size day 37” value [2, 8] of the same molecule?
Its value is 296 ± 27 mm^3.

What about the T/C [2, 8] of the same molecule?
Its T/C is 31.6%.

What about the “Tumor Size day 37” value [2, 9] of the same molecule?
The value was 104 ± 30 mm^3.

And the T/C [2, 9]?
Its T/C is 11.1%.

What about the mice alive ([3]; day 21, 1 mg/kg p.o. QD + Anti-PD1 10 mg/kg i.p. BIW) of the same molecule?
Its mice alive is 10.

And the mice alive ([3]; day 21, 1 mg/kg p.o. QD alone)?
Its mice alive is 10.

And the mice alive ([3]; day 21, 3 mg/kg p.o. QD + Anti-PD1 10 mg/kg i.p. BIW)?
Its mice alive is 10.

What about the mice alive ([3]; day 21, 3 mg/kg p.o. QD alone) of the same molecule?
The mice alive was 10.

What about the mice alive ([3]; day 23, 1 mg/kg p.o. QD + Anti-PD1 10 mg/kg i.p. BIW) of the same molecule?
The mice alive was 10.

What about the mice alive ([3]; day 23, 1 mg/kg p.o. QD alone) of the same molecule?
Its mice alive is 10.

And the mice alive ([3]; day 23, 3 mg/kg p.o. QD + Anti-PD1 10 mg/kg i.p. BIW)?
Its mice alive is 10.

What about the mice alive ([3]; day 23, 3 mg/kg p.o. QD alone) of the same molecule?
Its mice alive is 8.

What about the mice alive ([3]; day 25, 1 mg/kg p.o. QD + Anti-PD1 10 mg/kg i.p. BIW) of the same molecule?
The mice alive was 10.

And the mice alive ([3]; day 25, 1 mg/kg p.o. QD alone)?
Its mice alive is 5.

And the mice alive ([3]; day 25, 3 mg/kg p.o. QD + Anti-PD1 10 mg/kg i.p. BIW)?
The mice alive was 10.

And the mice alive ([3]; day 25, 3 mg/kg p.o. QD alone)?
The mice alive was 6.

What about the mice alive ([3]; day 28, 1 mg/kg p.o. QD + Anti-PD1 10 mg/kg i.p. BIW) of the same molecule?
Its mice alive is 7.

What about the mice alive ([3]; day 28, 1 mg/kg p.o. QD alone) of the same molecule?
The mice alive was 2.

And the mice alive ([3]; day 28, 3 mg/kg p.o. QD + Anti-PD1 10 mg/kg i.p. BIW)?
Its mice alive is 9.

What about the mice alive ([3]; day 28, 3 mg/kg p.o. QD alone) of the same molecule?
The mice alive was 2.

What about the mice alive ([3]; day 30, 1 mg/kg p.o. QD + Anti-PD1 10 mg/kg i.p. BIW) of the same molecule?
The mice alive was 6.

And the mice alive ([3]; day 30, 1 mg/kg p.o. QD alone)?
The mice alive was 1.

What about the mice alive ([3]; day 30, 3 mg/kg p.o. QD + Anti-PD1 10 mg/kg i.p. BIW) of the same molecule?
Its mice alive is 8.

What about the mice alive ([3]; day 30, 3 mg/kg p.o. QD alone) of the same molecule?
Its mice alive is 0.

And the mice alive ([3]; day 32, 1 mg/kg p.o. QD + Anti-PD1 10 mg/kg i.p. BIW)?
Its mice alive is 4.

And the mice alive ([3]; day 32, 1 mg/kg p.o. QD alone)?
The mice alive was 0.

What about the mice alive ([3]; day 32, 3 mg/kg p.o. QD + Anti-PD1 10 mg/kg i.p. BIW) of the same molecule?
Its mice alive is 4.

What about the mice alive ([3]; day 32, 3 mg/kg p.o. QD alone) of the same molecule?
Its mice alive is 0.

What about the mice alive ([3]; day 34, 1 mg/kg p.o. QD + Anti-PD1 10 mg/kg i.p. BIW) of the same molecule?
The mice alive was 4.

And the mice alive ([3]; day 34, 1 mg/kg p.o. QD alone)?
Its mice alive is 0.

And the mice alive ([3]; day 34, 3 mg/kg p.o. QD + Anti-PD1 10 mg/kg i.p. BIW)?
The mice alive was 4.

What about the mice alive ([3]; day 34, 3 mg/kg p.o. QD alone) of the same molecule?
Its mice alive is 0.

And the mice alive ([3]; day 36, 1 mg/kg p.o. QD + Anti-PD1 10 mg/kg i.p. BIW)?
Its mice alive is 4(*).

What about the mice alive ([3]; day 36, 1 mg/kg p.o. QD alone) of the same molecule?
The mice alive was 0.

What about the mice alive ([3]; day 36, 3 mg/kg p.o. QD + Anti-PD1 10 mg/kg i.p. BIW) of the same molecule?
Its mice alive is 4(*).

And the mice alive ([3]; day 36, 3 mg/kg p.o. QD alone)?
Its mice alive is 0.

What about the “repression of PSA (KLK3) gene expression stimulation” value [4] of the same molecule?
The value was “complete repression”.

What about the “repression of SLC45A3 gene expression stimulation” value [4] of the same molecule?
Its value is 80%.

What about the “repression of TMPRSS2 gene expression stimulation” value [4] of the same molecule?
Its value is 85%.

And the “tumor VEGF protein levels” value [5]?
The value was “significantly reduced”.

Which “TWO-WAY ANOVA p (tumor size at the end of the study) vs. Compound 258 6 mg/kg” value [1, 6] does the source give for CC(C)C[C@@H]1NCCN([C@@H](CC(C)C)C(=O)N2CCC3(C[C@@H]2C)OCC(CN2CCC2)CO3)C1=O (stereo partly drawn) [Compound 284, (3S)-1-[(2S)-4-methyl-1-oxo-1-[(3s,6s,8S)-3-(azetidin-1-ylmethyl)-8-methyl-1,5-dioxa-9-azaspiro[5.5]undec-an-9-yl]pentan-2-yl]-3-(2-methylpropyl)piper-azin-2-one (^≠), isomer Z] here?
The value was “n.s”.

And the “TWO-WAY ANOVA p (tumor size at the end of the study) vs. Compound 258 10 mg/kg” value [1, 6]?
The value was “n.s”.

What about the “TWO-WAY ANOVA p (tumor size at the end of the study) vs. Enzalutamide” value ([1]; 6 mg/kg, p.o. QD) of the same molecule?
Its value is “p < 0.0001”.

What about the “TWO-WAY ANOVA p (tumor size at the end of the study) vs. Vehicle” value ([1]; 6 mg/kg, p.o. QD) of the same molecule?
Its value is “p < 0.0001”.

And the “CR” value ([1]; p.o. QD, 6 mg/kg)?
The value was 3.

What about the “PR (partial regression) = number of mice” value ([1]; p.o. QD, 6 mg/kg) of the same molecule?
The value was 2.

What about the “TFS (Tumor Free Survival) = number” value ([1]; p.o. QD, 6 mg/kg) of the same molecule?
The value was 3.
